PubChem BioAssay AID1259407 (Chemical Carcinogenesis Research Information System (CCRIS), 2018)
Activity calls are given as the source filed them. How the calls were made is not given here.

System: CCRIS mutagenicity, Ames/micronucleus/aberration tests
Test: CCRIS mutagenicity studies
[1] = Test System: AMES SALMONELLA TYPHIMURIUM, Strain/Indicator: TA98, Metabolic Activation: NONE, Method: STANDARD PLATE
[2] = Test System: AMES SALMONELLA TYPHIMURIUM, Strain/Indicator: TA100, Metabolic Activation: NONE, Method: STANDARD PLATE
[3] = Test System: AMES SALMONELLA TYPHIMURIUM, Strain/Indicator: TA1537, Metabolic Activation: NONE, Method: STANDARD PLATE

For `C[CH2][Ge]([Cl])([CH2]C)[CH2]C`, the mutagenic call (Test System: AMES SALMONELLA TYPHIMURIUM, Strain/Indicator: TA98, Metabolic Activation: HAMSTER, LIVER, S-9, AROCLOR 1254 (10%), Method: STANDARD PLATE) was “inactive; negative”, the mutagenic call [1] was “inactive; negative” and the mutagenic call (Test System: AMES SALMONELLA TYPHIMURIUM, Strain/Indicator: TA98, Metabolic Activation: RAT, LIVER, S-9, AROCLOR 1254 (10%), Method: STANDARD PLATE) was “inactive; negative”. The mutagenic call (Test System: AMES SALMONELLA TYPHIMURIUM, Strain/Indicator: TA100, Metabolic Activation: HAMSTER, LIVER, S-9, AROCLOR 1254 (10%), Method: STANDARD PLATE) was “inactive; negative”, the mutagenic call [2] was “inactive; negative” and the mutagenic call (Test System: AMES SALMONELLA TYPHIMURIUM, Strain/Indicator: TA100, Metabolic Activation: RAT, LIVER, S-9, AROCLOR 1254 (10%), Method: STANDARD PLATE) was “inactive; negative”. The mutagenic call (Test System: AMES SALMONELLA TYPHIMURIUM, Strain/Indicator: TA1535, Metabolic Activation: HAMSTER, LIVER, S-9, AROCLOR 1254 (10%), Method: STANDARD PLATE) was “inactive; negative”, the mutagenic call (Test System: AMES SALMONELLA TYPHIMURIUM, Strain/Indicator: TA1535, Metabolic Activation: NONE, Method: STANDARD PLATE) was “inactive; negative” and the mutagenic call (Test System: AMES SALMONELLA TYPHIMURIUM, Strain/Indicator: TA1535, Metabolic Activation: RAT, LIVER, S-9, AROCLOR 1254 (10%), Method: STANDARD PLATE) was “inactive; negative”. For the same molecule, the mutagenic call (Test System: AMES SALMONELLA TYPHIMURIUM, Strain/Indicator: TA1537, Metabolic Activation: HAMSTER, LIVER, S-9, AROCLOR 1254 (10%), Method: STANDARD PLATE) was “inactive; negative”, the mutagenic call [3] was “inactive; negative” and the mutagenic call (Test System: AMES SALMONELLA TYPHIMURIUM, Strain/Indicator: TA1537, Metabolic Activation: RAT, LIVER, S-9, AROCLOR 1254 (10%), Method: STANDARD PLATE) was “inactive; negative”. For the same molecule, the mutagenic call (Test System: AMES SALMONELLA TYPHIMURIUM, Strain/Indicator: TA1538, Metabolic Activation: HAMSTER, LIVER, S-9, AROCLOR 1254 (10%), Method: STANDARD PLATE) was “inactive; negative”, the mutagenic call (Test System: AMES SALMONELLA TYPHIMURIUM, Strain/Indicator: TA1538, Metabolic Activation: NONE, Method: STANDARD PLATE) was “inactive; negative” and the mutagenic call (Test System: AMES SALMONELLA TYPHIMURIUM, Strain/Indicator: TA1538, Metabolic Activation: RAT, LIVER, S-9, AROCLOR 1254 (10%), Method: STANDARD PLATE) was “inactive; negative”. The mutagenic call (Test System: MOUSE LYMPHOMA, Strain/Indicator: L5178Y (TK+/TK-), Metabolic Activation: NONE, Method: SUSPENSION/PLATE) was “inactive; negative. reevaluation of results: inconclusive” and the mutagenic call (Test System: MOUSE LYMPHOMA, Strain/Indicator: L5178Y (TK+/TK-), Metabolic Activation: RAT, LIVER, S-9, AROCLOR 1254, Method: SUSPENSION/PLATE) was “inactive; negative. reevaluation of results: negative”.
`CCOCCO` was tested, and the mutagenic call (End Point: IN VITRO CHROMOSOMAL ABERRATIONS, Test System: CHINESE HAMSTER OVARY CELLS, Metabolic Activation: RAT, LIVER, S-9, AROCLOR 1254) was “inactive; negative”, the mutagenic call (Test System: AMES SALMONELLA TYPHIMURIUM, Strain/Indicator: TA97A, Metabolic Activation: NONE, Method: STANDARD PLATE) was “inactive; negative” and the mutagenic call (Test System: AMES SALMONELLA TYPHIMURIUM, Strain/Indicator: TA97A, Metabolic Activation: RAT, LIVER, S-9, AROCLOR 1254, Method: STANDARD PLATE) was “inactive; negative”. For the same molecule, the mutagenic call (Test System: AMES SALMONELLA TYPHIMURIUM, Strain/Indicator: TA98, Metabolic Activation: HAMSTER, LIVER, S-9, AROCLOR 1254 (10%), Method: PREINCUBATION) was “inactive; negative”, the mutagenic call (Test System: AMES SALMONELLA TYPHIMURIUM, Strain/Indicator: TA98, Metabolic Activation: NONE, Method: PREINCUBATION) was “inactive; negative” and the mutagenic call [1] was “inactive; negative”. For the same molecule, the mutagenic call (Test System: AMES SALMONELLA TYPHIMURIUM, Strain/Indicator: TA98, Metabolic Activation: RAT, LIVER, S-9, AROCLOR 1254 (10%), Method: PREINCUBATION) was “inactive; negative”, the mutagenic call (Test System: AMES SALMONELLA TYPHIMURIUM, Strain/Indicator: TA98, Metabolic Activation: RAT, LIVER, S-9, AROCLOR 1254, Method: STANDARD PLATE) was “inactive; negative” and the mutagenic call (Test System: AMES SALMONELLA TYPHIMURIUM, Strain/Indicator: TA98, Metabolic Activation: RAT, LIVER, S-9, KC 500, Method: PREINCUBATION) was “inactive; negative”. For the same molecule, the mutagenic call (Test System: AMES SALMONELLA TYPHIMURIUM, Strain/Indicator: TA100, Metabolic Activation: HAMSTER, LIVER, S-9, AROCLOR 1254 (10%), Method: PREINCUBATION) was “inactive; negative”, the mutagenic call (Test System: AMES SALMONELLA TYPHIMURIUM, Strain/Indicator: TA100, Metabolic Activation: NONE, Method: PREINCUBATION) was “inactive; negative” and the mutagenic call [2] was “inactive; negative”. The mutagenic call (Test System: AMES SALMONELLA TYPHIMURIUM, Strain/Indicator: TA100, Metabolic Activation: RAT, LIVER, S-9, AROCLOR 1254 (10%), Method: PREINCUBATION) was “inactive; negative”, the mutagenic call (Test System: AMES SALMONELLA TYPHIMURIUM, Strain/Indicator: TA100, Metabolic Activation: RAT, LIVER, S-9, AROCLOR 1254, Method: STANDARD PLATE) was “inactive; negative” and the mutagenic call (Test System: AMES SALMONELLA TYPHIMURIUM, Strain/Indicator: TA100, Metabolic Activation: RAT, LIVER, S-9, KC 500, Method: PREINCUBATION) was “inactive; negative”. For the same molecule, the mutagenic call (Test System: AMES SALMONELLA TYPHIMURIUM, Strain/Indicator: TA102, Metabolic Activation: NONE, Method: STANDARD PLATE) was “inactive; negative”, the mutagenic call (Test System: AMES SALMONELLA TYPHIMURIUM, Strain/Indicator: TA102, Metabolic Activation: RAT, LIVER, S-9, AROCLOR 1254, Method: STANDARD PLATE) was “inactive; negative” and the mutagenic call (Test System: AMES SALMONELLA TYPHIMURIUM, Strain/Indicator: TA1535, Metabolic Activation: HAMSTER, LIVER, S-9, AROCLOR 1254 (10%), Method: PREINCUBATION) was “inactive; negative”. The mutagenic call (Test System: AMES SALMONELLA TYPHIMURIUM, Strain/Indicator: TA1535, Metabolic Activation: NONE, Method: PREINCUBATION) was “inactive; negative”, the mutagenic call (Test System: AMES SALMONELLA TYPHIMURIUM, Strain/Indicator: TA1535, Metabolic Activation: RAT, LIVER, S-9, AROCLOR 1254 (10%), Method: PREINCUBATION) was “inactive; negative” and the mutagenic call (Test System: AMES SALMONELLA TYPHIMURIUM, Strain/Indicator: TA1535, Metabolic Activation: RAT, LIVER, S-9, KC 500, Method: PREINCUBATION) was “inactive; negative”. The mutagenic call (Test System: AMES SALMONELLA TYPHIMURIUM, Strain/Indicator: TA1537, Metabolic Activation: HAMSTER, LIVER, S-9, AROCLOR 1254 (10%), Method: PREINCUBATION) was “inactive; negative”, the mutagenic call (Test System: AMES SALMONELLA TYPHIMURIUM, Strain/Indicator: TA1537, Metabolic Activation: NONE, Method: PREINCUBATION) was “inactive; negative” and the mutagenic call (Test System: AMES SALMONELLA TYPHIMURIUM, Strain/Indicator: TA1537, Metabolic Activation: RAT, LIVER, S-9, AROCLOR 1254 (10%), Method: PREINCUBATION) was “inactive; negative”. For the same molecule, the mutagenic call (Test System: AMES SALMONELLA TYPHIMURIUM, Strain/Indicator: TA1537, Metabolic Activation: RAT, LIVER, S-9, KC 500, Method: PREINCUBATION) was “inactive; negative”, the mutagenic call (Test System: AMES SALMONELLA TYPHIMURIUM, Strain/Indicator: TA1538, Metabolic Activation: NONE, Method: PREINCUBATION) was “inactive; negative” and the mutagenic call (Test System: AMES SALMONELLA TYPHIMURIUM, Strain/Indicator: TA1538, Metabolic Activation: RAT, LIVER, S-9, KC 500, Method: PREINCUBATION) was “inactive; negative”. For the same molecule, the mutagenic call (Test System: E. COLI, Strain/Indicator: WP2 UVRA, Metabolic Activation: NONE, Method: PREINCUBATION) was “inactive; negative” and the mutagenic call (Test System: E. COLI, Strain/Indicator: WP2 UVRA, Metabolic Activation: RAT, LIVER, S-9, KC 500, Method: PREINCUBATION) was “inactive; negative”.
For `C[n+]1cccc(-c2ccc[n+](C)c2)c1`, the mutagenic call (Test System: AMES SALMONELLA TYPHIMURIUM, Strain/Indicator: TA97, Metabolic Activation: RAT, LIVER, S-9, PHENOBARBITAL, Method: STANDARD PLATE) was “inactive; negative”, the mutagenic call (Test System: AMES SALMONELLA TYPHIMURIUM, Strain/Indicator: TA98, Metabolic Activation: RAT, LIVER, S-9, PHENOBARBITAL, Method: STANDARD PLATE) was “inactive; negative” and the mutagenic call (Test System: AMES SALMONELLA TYPHIMURIUM, Strain/Indicator: TA100, Metabolic Activation: RAT, LIVER, S-9, PHENOBARBITAL, Method: STANDARD PLATE) was “active; positive”. The mutagenic call (Test System: AMES SALMONELLA TYPHIMURIUM, Strain/Indicator: TA1535, Metabolic Activation: RAT, LIVER, S-9, PHENOBARBITAL, Method: STANDARD PLATE) was “inactive; negative”, the mutagenic call (Test System: AMES SALMONELLA TYPHIMURIUM, Strain/Indicator: TA1537, Metabolic Activation: RAT, LIVER, S-9, PHENOBARBITAL, Method: STANDARD PLATE) was “inactive; negative” and the mutagenic call (Test System: AMES SALMONELLA TYPHIMURIUM, Strain/Indicator: TA1538, Metabolic Activation: RAT, LIVER, S-9, PHENOBARBITAL, Method: STANDARD PLATE) was “inactive; negative”.
In the case of `CN(C)CCNC(=O)c1cccc2c(=O)c3ccccc3oc12`, the mutagenic call [3] is reported as “active; positive”.
